Experimental findings from US8354422B2, “Pyrimidine inhibitors of kinase activity” (Abbott Laboratories Inc., priority 2009, dated 2013) are described below.

The structures appear in SMILES notation.

T1 sequence (P08069 954-1367): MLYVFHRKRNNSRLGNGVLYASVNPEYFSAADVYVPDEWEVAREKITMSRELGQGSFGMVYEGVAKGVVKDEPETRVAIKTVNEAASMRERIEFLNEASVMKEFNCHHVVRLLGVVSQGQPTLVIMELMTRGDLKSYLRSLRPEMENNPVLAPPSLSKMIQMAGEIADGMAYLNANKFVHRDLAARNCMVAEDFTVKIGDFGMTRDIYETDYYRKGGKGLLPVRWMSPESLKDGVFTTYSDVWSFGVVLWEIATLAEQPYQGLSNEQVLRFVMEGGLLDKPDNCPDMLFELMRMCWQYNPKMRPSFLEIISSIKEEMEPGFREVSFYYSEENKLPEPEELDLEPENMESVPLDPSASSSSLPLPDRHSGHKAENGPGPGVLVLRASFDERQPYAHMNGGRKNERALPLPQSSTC

The experiment addresses T1, C-terminal GST-tagged, recombinant, human IGF-1R, amino acids 954-1367 (Homo sapiens, UniProt P08069).
T1 construct: human IGF-1R, amino acids 954-1367 expressed by baculovirus in Sf21 cells; GST (C); purchased Cell Signaling Technology; host or cells: baculovirus in Sf21 cells
Nature of the experiment: IGF-1R kinase activity, homogenous time-resolved fluorescence (HTRF) in vitro kinase assay. Conditions: IGF-1R kinase HTRF assay, ATP 50 μM, biotinylated peptide substrate 0.5 μM, 60 minutes at room temperature. The format is biochemical. The protocol:
IGF-1R kinase activity was assayed by a homogenous time-resolved fluorescence (HTRF) in vitro kinase assay (Mathis, G., HTRF(R) Technology. J Biomol Screen, 1999. 4(6): p. 309-314). Specifically, 10 μL C-terminal GST-tagged, recombinant, human IGF-1R, amino acids 954-1367 expressed by baculovirus in Sf21 cells (Cell Singaling Technology) was mixed with 10 μL inhibitor (various concentrations, 2% final DMSO) and 10 μL of ATP (50 μM final concentration) in reaction buffer (50 mM HEPES, pH […], 2 mM MnCl2, 0.1% BSA and 1 mM DTT, 40 μL final volume). The reaction was initiated by addition of 10 μL of biotinylated peptide substrate (Biotin-Ahx-[…], 0.5 μM final concentration) in a black 384-well plate (Packard). After 60 minutes incubation at room temperature, the reaction was quenched by addition of 60 μL stop/revelation buffer to give 30 mM EDTA, 1 μg/mL streptavidin-APC (Prozyme), 50 ng/mL anti-phosphotyrosine mAb PT66-K Europium Cryptate, 30 mM HEPES, pH 7.5, 120 mM KF, 0.005% Tween-20, 0.05% BSA). The quenched reaction was allowed to stand at room temperature for 1 hour and then read in a time-resolved fluorescence detector (Envision, Perkin Elmer) at 615 nm and 665 nm simultaneously. The ratio between the signal of 615 nm and 665 nm was used in the calculation of the IC50.
Turning to `COc1cc(-c2nc3ccccn3c2-c2ccnc(Nc3cnn(CCN4CCOCC4)c3)n2)ccc1OCc1ccccc1` [Example 55, 4-{2-[4-(benzyloxy)-3-methoxyphenyl]imidazo[1,2-a]pyridin-3-yl}-N-[1-(2-morpholin-4-ylethyl)-1H-pyrazol-4-yl]pyrimidin-2-amine], the IC50 (in general, the midpoint of a concentration-inhibition curve) is 25 to 100 nM.

As to `COc1cc(N2CCC(N3CCSCC3)CC2)ccc1Nc1nccc(-c2c(-c3ccc(OCc4ccccc4)c(OC)c3)nc3ccccn23)n1` [Example 56, 4-{2-[4-(benzyloxy)-3-methoxyphenyl]imidazo[1,2-a]pyridin-3-yl}-N-[2-methoxy-4-(4-thiomorpholin-4-ylpiperidin-1-yl)phenyl]pyrimidin-2-amine], the IC50 was 101 to 500 nM.

As to `COc1cc(C2CCNCC2)ccc1Nc1nccc(-c2c(-c3ccc(OCc4ccccc4)c(OC)c3)nc3ccccn23)n1` [Example 57, 4-{2-[4-(benzyloxy)-3-methoxyphenyl]imidazo[1,2-a]pyridin-3-yl}-N-(2-methoxy-4-piperidin-4-ylphenyl)pyrimidin-2-amine], the IC50 was < 25 nM.

As to `FC(F)(F)Oc1cc(-c2nc3ccccn3c2-c2ccnc(Nc3cccc(CCN4CCCC4)c3)n2)ccc1OCc1ccccc1` [Example 58, 4-{2-[4-(benzyloxy)-3-(trifluoromethoxy)phenyl]imidazo[1,2-a]pyridin-3-yl}-N-[3-(2-pyrrolidin-1-ylethyl)phenyl]pyrimidin-2-amine], the IC50 was > 1000 nM.

On to `COc1ccc(CCN(C)C)cc1Nc1nccc(-c2c(-c3ccc(OCc4ccccc4)c(OC)c3)nc3ccccn23)n1` [Example 59, 4-{2-[4-(benzyloxy)-3-methoxyphenyl]imidazo[1,2-a]pyridin-3-yl}-N-{5-[2-(dimethylamino)ethyl]-2-methoxyphenyl}pyrimidin-2-amine], for which the half-maximal inhibitory concentration (IC50) is 25 to 100 nM.

Consider `COc1cc(-c2nc3ccccn3c2-c2ccnc(Nc3ccc4c(c3)CN(C)CC4)n2)ccc1OCc1ccccc1` [Example 60, N-(4-{2-[4-(benzyloxy)-3-methoxyphenyl]imidazo[1,2-a]pyridin-3-yl}pyrimidin-2-yl)-2-methyl-1,2,3,4-tetrahydroisoquinolin-7-amine], for which the IC50 was in the range of 25 to 100 nM.

Take `COc1cc(-c2nc3ccccn3c2-c2ccnc(Nc3ccc4c(c3)CCNC4)n2)ccc1OCc1ccccc1` [Example 61, N-(4-{2-[4-(benzyloxy)-3-methoxyphenyl]imidazo[1,2-a]pyridin-3-yl}pyrimidin-2-yl)-1,2,3,4-tetrahydroisoquinolin-6-amine]: the half-inhibitory concentration (IC50) was < 25 nM.

Turning to `COc1cc(-c2nc3ccccn3c2-c2ccnc(Nc3ccc4c(c3)CNCC4)n2)ccc1OCc1ccccc1` [Example 62, N-(4-{2-[4-(benzyloxy)-3-methoxyphenyl]imidazo[1,2-a]pyridin-3-yl}pyrimidin-2-yl)-1,2,3,4-tetrahydroisoquinolin-7-amine], the half-inhibitory concentration (IC50) was in the range of 25 to 100 nM.

As to `COc1cc(N2CCS(=O)(=O)CC2)ccc1Nc1nccc(-c2c(-c3ccc(OCc4ccccc4)c(OC)c3)nc3ccccn23)n1` [Example 63, 4-{2-[4-(benzyloxy)-3-methoxyphenyl]imidazo[1,2-a]pyridin-3-yl}-N-[4-(1,1-dioxidothiomorpholin-4-yl)-2-methoxyphenyl]pyrimidin-2-amine], the concentration for half-maximal inhibition (IC50) lay within 25 to 100 nM.

With `COc1ccc(CN(C)CCO)cc1Nc1nccc(-c2c(-c3ccc(OCc4ccccc4)c(OC)c3)nc3ccccn23)n1` [Example 64, 2-[{3-[(4-{2-[4-(benzyloxy)-3-methoxyphenyl]imidazo[1,2-a]pyridin-3-yl}pyrimidin-2-yl)amino]-4-methoxybenzyl}(methyl)amino]ethanol], the IC50 was 101 to 500 nM.

`COc1cc(-c2nc3ccccn3c2-c2ccnc(Nc3ccc(NC(=O)CN(C)C)cc3)n2)ccc1OCc1ccccc1` [Example 65, N^1-{4-[(4-{2-[4-(benzyloxy)-3-methoxyphenyl]imidazo[1,2-a]pyridin-3-yl}pyrimidin-2-yl)amino]phenyl}-N^2,N^2-dimethylglycinamide]: the IC50 lay within 25 to 100 nM.

`COc1cc(-c2nc3ccccn3c2-c2ccnc(Nc3cccc(NC(=O)CN(C)C)c3)n2)ccc1OCc1ccccc1` [Example 66, N^1-{3-[(4-{2-[4-(benzyloxy)-3-methoxyphenyl]imidazo[1,2-a]pyridin-3-yl}pyrimidin-2-yl)amino]phenyl}-N^2,N^2-dimethylglycinamide]: the IC50 is 25 to 100 nM.

As to `CN(C)CC(=O)Nc1cccc(Nc2nccc(-c3c(-c4ccc(OCc5ccccc5)cc4)nc4ccccn34)n2)c1` [Example 67, N^1-{3-[(4-{2-[4-(benzyloxy)phenyl]imidazo[1,2-a]pyridin-3-yl}pyrimidin-2-yl)amino]phenyl}-N^2,N^2-dimethylglycinamide], the IC50 is 101 to 500 nM.

As to `Cc1cc(-c2nc3ccccn3c2-c2ccnc(Nc3cccc(CCN(C)C)c3)n2)ccc1OCc1ccccc1` [Example 68, 4-{2-[4-(benzyloxy)-3-methylphenyl]imidazo[1,2-a]pyridin-3-yl}-N-{3-[2-(dimethylamino)ethyl]phenyl}pyrimidin-2-amine], the IC50 fell in the range of 501 to 1000 nM.

As for `COc1cc(-c2nc3ccccn3c2-c2ccnc(Nc3ccc(CCN(C)C)cc3)n2)ccc1OCc1ccccc1` [Example 69, 4-{2-[4-(benzyloxy)-3-methoxyphenyl]imidazo[1,2-a]pyridin-3-yl}-N-{4-[2-(dimethylamino)ethyl]phenyl}pyrimidin-2-amine], the 50% inhibitory concentration (IC50) was < 25 nM.

Regarding `COc1cc(-c2nc3ccccn3c2-c2ccnc(Nc3cccc(CN4CCC(O)C4)c3)n2)ccc1OCc1ccccc1` (stereo not shown) [Example 70, 1-{3-[(4-{2-[4-(benzyloxy)-3-methoxyphenyl]imidazo[1,2-a]pyridin-3-yl}pyrimidin-2-yl)amino]benzyl}pyrrolidin-3-ol], the IC50 is 25 to 100 nM.

Take `COc1ccc(NC(=O)CN(C)C)cc1Nc1nccc(-c2c(-c3ccc(OCc4ccccc4)c(OC)c3)nc3ccccn23)n1` [Example 71, N^1-{3-[(4-{2-[4-(benzyloxy)-3-methoxyphenyl]imidazo[1,2-a]pyridin-3-yl}pyrimidin-2-yl)amino]-4-methoxyphenyl}-N^2,N^2-dimethylglycinamide]: the IC50 is < 25 nM.

Turning to `COc1ccc(NC(=O)CN(C)C)cc1Nc1nccc(-c2c(-c3ccc(OCc4ccccc4)cc3)nc3ccccn23)n1` [Example 72, N^1-{3-[(4-{2-[4-(benzyloxy)phenyl]imidazo[1,2-a]pyridin-3-yl}pyrimidin-2-yl)amino]-4-methoxyphenyl}-N^2,N^2-dimethylglycinamide], the IC50 is < 25 nM.

Turning to `COc1ccc(N2CCSCC2)cc1Nc1nccc(-c2c(-c3ccc(OCc4ccccc4)c(OC)c3)nc3ccccn23)n1` [Example 73, 4-{2-[4-(benzyloxy)-3-methoxyphenyl]imidazo[1,2-a]pyridin-3-yl}-N-(2-methoxy-5-thiomorpholin-4-ylphenyl)pyrimidin-2-amine], the IC50 is 101 to 500 nM.

As for `COc1ccc(N2CCS(=O)(=O)CC2)cc1Nc1nccc(-c2c(-c3ccc(OCc4ccccc4)c(OC)c3)nc3ccccn23)n1` [Example 74, 4-{2-[4-(benzyloxy)-3-methoxyphenyl]imidazo[1,2-a]pyridin-3-yl}-N-[5-(1,1-dioxidothiomorpholin-4-yl)-2-methoxyphenyl]pyrimidin-2-amine], the IC50 is < 25 nM.

Consider `CN(C)CCc1cccc(Nc2nccc(-c3c(-c4ccc(OCc5ccccc5)cc4)nn4ccccc34)n2)c1` [Example 75, 4-{2-[4-(benzyloxy)phenyl]pyrazolo[1,5-a]pyridin-3-yl}-N-{3-[2-(dimethylamino)ethyl]phenyl}pyrimidin-2-amine], for which the IC50 is < 25 nM.

Turning to `CN(C)CCc1cccc(Nc2nccc(-c3c(-c4ccc(OCc5ccccc5)cc4)nn4ncccc34)n2)c1` [Example 76, 4-{2-[4-(benzyloxy)phenyl]pyrazolo[1,5-b]pyridazin-3-yl}-N-{3-[2-(dimethylamino)ethyl]phenyl}pyrimidin-2-amine], the IC50 is < 25 nM.

On to `CN(C)CCc1cccc(Nc2nccc(-c3c(-c4ccc(OCc5ccccc5)cc4)nn4cc(F)ccc34)n2)c1` [Example 77, 4-{2-[4-(benzyloxy)phenyl]-6-fluoropyrazolo[1,5-a]pyridin-3-yl}-N-{3-[2-(dimethylamino)ethyl]phenyl}pyrimidin-2-amine], for which the IC50 was > 1000 nM.

In the case of `c1ccc(COc2ccc(-c3nc4sccn4c3-c3ccnc(Nc4ccccc4)n3)cc2)cc1` [Example 78, 4-{6-[4-(benzyloxy)phenyl]imidazo[2,1-b][1,3]thiazol-5-yl}-N-phenylpyrimidin-2-amine], the IC50 was > 1000 nM.

`COc1ccccc1Nc1nccc(-c2c(-c3ccc(OCc4ccccc4)cc3)nc3sccn23)n1` [Example 79, 4-{6-[4-(benzyloxy)phenyl]imidazo[2,1-b][1,3]thiazol-5-yl}-N-(2-methoxyphenyl)pyrimidin-2-amine]: the IC50 was > 1000 nM.
